The values below come from patent publication US20050148632A1, “Therapeutic agent for intestinal diseases and visceral pain” (priority 2002, published 2005).

The experiment deals with 5-hydroxytryptophan (5-HTP)-induced defecation models of mice. Description: Effect on 5-hydroxytryptophan (5-HTP)-induced defecation models of mice in vivo. The following applies: male SLC:ICR mice; 30 mg/kg orally, 30 minutes before 10 mg/kg 5-HTP s.c.; stool scored during 30 minutes. The procedure:
Effect on 5-hydroxytryptophan (5-HTP)-induced defecation models of mice in vivo:
The tests were conducted by using (R)-3-(2-(2-(4-methylpiperidine-1-yl)-ethyl)pyrrolidine-1-sulfonyl)phenol (synthesized according to a method described in WO 97/48681) known to be a selective 5-HT7 receptor antagonist as test compound 1 by a method of G. J. Sanger et al. (British Journal of Pharmacology, 130: 706-712, 2000).
Male SLC:ICR mice (6 weeks) were placed in a series of 5 stainless steel cages for mice. After the acclimation for one hour or longer, 30 mg/kg of test compound 1 was orally administered to them (n=10). 30 minutes after, 10 mg/5mL/kg of 5-HTP (or 5 mL/kg of physiological saline in a group in which 5-HTP was not used) was subcutaneously administered to the mice . The stool excreted by each mouse during 30 minutes after the administration was observed (the results were scored as follows: 0: normal stool or no defecation, 1: diarrhea or soft stool). The inhibitory rate (%) of test compound 1 was calculated while the score obtained by subtracting the score of the 5-HTP-free group from the score of the 5-HTP group was determined to be 100%.

For `CC1CCN(CC[C@H]2CCCN2S(=O)(=O)c2cccc(O)c2)CC1` [test compound 1, (R)-3-(2-(2-(4-methylpiperidine-1-yl)-ethyl)pyrrolidine-1-sulfonyl)phenol], the “control rate (inhibitory rate of 5-HTP-induced diarrhea/soft stool score)” value worked out at 70%.
